Results taken from US9475798B2, “Azetidine estrogen receptor modulators and uses thereof” (Genentech, Inc., priority 2013, dated 2016).
Read-outs that look alike come from different tables or passages of the source.

Legend:
[1] = target: T1, ER-α (Homo sapiens, UniProt P03372); test: Breast Cancer Cell ER-α In-Cell Western Assay (SP1); format: cell-based; details: MCF7 cells, 4 hours; 100-{100*[(100-% ER level of Example)/(100-% ER level of Fulvestrant)]}
T1 construct: endogenous in cells; host or cells: MCF7
T1 sequence (P03372 1-595): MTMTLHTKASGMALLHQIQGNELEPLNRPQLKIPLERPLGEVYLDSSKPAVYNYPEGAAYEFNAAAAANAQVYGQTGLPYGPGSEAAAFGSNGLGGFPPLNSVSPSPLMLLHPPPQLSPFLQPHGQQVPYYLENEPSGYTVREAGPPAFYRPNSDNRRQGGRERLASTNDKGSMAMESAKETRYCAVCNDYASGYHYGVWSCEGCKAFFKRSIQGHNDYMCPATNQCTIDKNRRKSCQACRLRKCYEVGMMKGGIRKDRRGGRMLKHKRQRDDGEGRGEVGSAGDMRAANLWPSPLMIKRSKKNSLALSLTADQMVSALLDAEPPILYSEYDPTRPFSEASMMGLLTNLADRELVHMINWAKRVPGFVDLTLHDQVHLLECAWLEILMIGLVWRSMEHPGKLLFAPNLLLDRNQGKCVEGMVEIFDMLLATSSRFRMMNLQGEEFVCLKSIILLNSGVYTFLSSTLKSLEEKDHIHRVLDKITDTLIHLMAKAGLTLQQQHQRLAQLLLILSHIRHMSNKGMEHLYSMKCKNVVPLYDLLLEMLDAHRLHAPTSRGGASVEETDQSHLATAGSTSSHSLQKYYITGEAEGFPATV
Method: MCF7 cells were trypsinized and washed twice in Phenol Red Free RPMI containing 5% Charcoal Dextran Stripped serum with 20 mM HEPES and NEAA, then adjusted to a concentration of 200,000 cells per mL with the same medium. […] At 4 hours post compound addition, the cells were fixed by adding 16 μL of 30% formalin to the 32 μL of cells and compound (10% formalin final concentration) for 20 minutes. Cells were then washed twice with PBS Tween 0.1% and then permeabilized in PBS 0.1% Triton (50 μl/well) for additional 15 minutes. The PBS 0.1% triton was decanted, and the cells were washed: LI-COR blocking buffer (50 μL/well) was added, the plate was spun at 3000 rpm, and then the blocking buffer was decanted. Additional LI-COR blocking buffer (50 μL/well) was added, and the cells were incubated overnight at 4° C. The blocking buffer was decanted, and the cells were incubated overnight at 4° C. with SP1 (Thermo Scientific) anti-ER rabbit monoclonal antibody diluted 1:1000 in LI-COR blocking buffer/0.1% Tween-20. Wells which were treated with blocking buffer with Tween but no antibody were used as a background control. Wells were washed twice with PBS Tween 0.1% to remove free SP1 antibodies, and the cells were incubated at room temp for 60-90 minutes in LI-COR goat anti-rabbit IRDye™ 800 CW (1:1000) and DRAQ5 DNA dye (1:10000 of 5 mM stock solution) diluted in LI-COR blocking buffer containing 0.1% Tween-20 and 0.01% SDS. Cells were then washed with 0.1% Tween-20/PBS three times. Plates were scanned on a LI-COR Odyssey infrared imaging system. Integrated intensities in the 800 nm channel and 700 nm channel were measured to determine levels of ER-α and DNA respectively. Percent ER levels were determined as follows: (Integrated intensity 800 nm sample/integrated intensity 700 nm sample)/(Integrated intensity 800 nm untreated cells/integrated intensity 700 nm untreated cells)×100=% ER-α levels.

[2] = tested on: MCF-7 cells; test: Breast Cancer Cell Viability Assay (MCF7, CellTiter-Glo); details: for MCF7 Viability Assay: % Viability relative to Fulvestrant: 5 days, 100-{100*[(100-% viability of Example)/(100-% viability of Fulvestrant)]};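 as to all read-outs here: CellTiter-Glo luminescence read-out, background from cell-free medium subtracted, viability expressed against untreated cells, ten-point 1:5 compound dilution series spanning 10 to 0.000005 µM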
[3] = read-out: MCF7 Viability Assay IC50, 5 days' compound exposure

ER-α In-Cell Western Assay (SP1): % ER-α remaining relative to Fulvestrant [1] | IC50 [2, 3] | IC50 ([2]; read-out: MCF7 Viability Assay IC50, 5 days' compound exposure, cell printed without unit) | SMILES | MCF7 Viability Assay: % Viability relative to Fulvestrant [2]
2% | 300 pM | – | CC1=C(c2ccc(F)cc2)C(c2ccc(OCCN3CC(CF)C3)cc2)Oc2cc(O)ccc21 (stereo not shown) [Example 25, 2-(4-(2-(3-(Fluoromethyl)azetidin-1-yl)ethoxy)phenyl)-3-(4-fluorophenyl)-4-methyl-2H-chromen-7-ol] | 7%
8% | 12000 pM | – | CC1=C(c2ccc(C(F)(F)F)cc2)C(c2ccc(OCCN3CC(CF)C3)cc2)Oc2ccc(O)cc21 (stereo not shown) [Example 22, 2-(4-(2-(3-(Fluoromethyl)azetidin-1-yl)ethoxy)phenyl)-4-methyl-3-(4-(trifluoromethyl)phenyl)-2H-chromen-6-ol] | 6%
2% | 530 pM | – | CC1=C(c2ccc(F)c(Cl)c2)C(c2ccc(OCCN3CC(CF)C3)cc2)Oc2ccc(O)cc21 (stereo not shown) [Example 13, 3-(3-Chloro-4-fluorophenyl)-2-(4-(2-(3-(fluoromethyl)azetidin-1-yl)ethoxy)phenyl)-4-methyl-2H-chromen-6-ol] | 1%
0% | 420 pM | – | CC1=C(c2cc(F)c(F)c(F)c2)C(c2ccc(OCCN3CC(CF)C3)cc2)Oc2ccc(O)cc21 (stereo not shown) [Example 19, 2-(4-(2-(3-(Fluoromethyl)azetidin-1-yl)ethoxy)phenyl)-4-methyl-3-(3,4,5-trifluorophenyl)-2H-chromen-6-ol] | 0%
1% | 710 pM | – | CC1=C(c2ccc(Cl)c(F)c2)C(c2ccc(OCCN3CC(CF)C3)cc2)Oc2ccc(O)cc21 (stereo not shown) [Example 16, 3-(4-Chloro-3-fluorophenyl)-2-(4-(2-(3-(fluoromethyl)azetidin-1-yl)ethoxy)phenyl)-4-methyl-2H-chromen-6-ol] | 1%
3% | 1200 pM | – | CC1=C(c2ccc(Cl)cc2)C(c2ccc(OCCN3CC(CF)C3)cc2)Oc2ccc(O)cc21 (stereo not shown) [Example 4, 3-(4-Chlorophenyl)-2-(4-(2-(3-(fluoromethyl)azetidin-1-yl)ethoxy)phenyl)-4-methyl-2H-chromen-6-ol] | 3%
– | 26000 pM | – | CC1=C(c2ccc(F)cc2)[C@@H](c2ccc(OCCN3CC(CF)C3)cc2)Oc2ccc(O)cc21 (single isomer, unassigned) [Example 2] | 3%
14% | 700 pM | – | CC1=C(c2ccc(F)c(F)c2)C(c2ccc(OC[C@H](C)N3CC[C@@H](C)C3)cc2)Oc2ccc(O)cc21 (stereo partly drawn) [3-(3,4-difluorophenyl)-4-methyl-2-(4-((S)-2-((R)-3-methylpyrrolidin-1-yl)propoxy)phenyl)-2H-chromen-6-ol, reference compound] | 19%
16% | – | 300 pM | CC1=C(c2ccc(F)cc2)[C@H](c2ccc(OC[C@H](C)N3CC[C@@H](C)C3)cc2)Oc2ccc(O)cc21 [(S)-3-(4-fluorophenyl)-4-methyl-2-(4-((S)-2-((R)-3-methylpyrrolidin-1-yl)propoxy)phenyl)-2H-chromen-6-ol, reference compound] | 14%
– | 360 pM | – | CC1=C(c2ccc(F)cc2)C(c2ccc(OCCN3CC(CF)C3)cc2)Oc2ccc(O)cc21 (stereo not shown) [Example 1, 2-(4-(2-(3-(Fluoromethyl)azetidin-1-yl)ethoxy)phenyl)-3-(4-fluorophenyl)-4-methyl-2H-chromen-6-ol] | 3%
14% | 200 pM | – | CC1=C(c2cccc(O)c2)C(c2ccc(OCCN3CC(C)C3)cc2)Oc2ccc(O)cc21 (stereo not shown) [Example 31, 3-(3-Hydroxyphenyl)-4-methyl-2-(4-(2-(3-methylazetidin-1-yl)ethoxy)phenyl)-2H-chromen-6-ol] | 13%
18% | 400 pM | – | CC1=C(c2ccc(F)cc2)C(c2ccc(OC[C@H](C)N3CC[C@@H](C)C3)cc2)Oc2ccc(O)cc21 (stereo partly drawn) [3-(4-fluorophenyl)-4-methyl-2-(4-((S)-2-((R)-3-methylpyrrolidin-1-yl)propoxy)phenyl)-2H-chromen-6-ol, reference compound] | 17%
3% | 800 pM | – | CC1=C(c2ccc(Cl)cc2)C(c2ccc(OCCN3CC(CF)C3)cc2)Oc2cc(O)ccc21 (stereo not shown) [Example 28, 3-(4-Chlorophenyl)-2-(4-(2-(3-(fluoromethyl)azetidin-1-yl)ethoxy)phenyl)-4-methyl-2H-chromen-7-ol] | 6%
1% | 410 pM | – | CC1=C(c2ccc(F)c(F)c2)C(c2ccc(OCCN3CC(CF)C3)cc2)Oc2ccc(O)cc21 (stereo not shown) [Example 10, 3-(3,4-Difluorophenyl)-2-(4-(2-(3-(fluoromethyl)azetidin-1-yl)ethoxy)phenyl)-4-methyl-2H-chromen-6-ol] | 2%
2% | 3500 pM | – | CC1=C(c2ccc(C#N)cc2)C(c2ccc(OCCN3CC(CF)C3)cc2)Oc2ccc(O)cc21 (stereo not shown) [Example 7, 4-(2-(4-(2-(3-(Fluoromethyl)azetidin-1-yl)ethoxy)phenyl)-6-hydroxy-4-methyl-2H-chromen-3-yl)benzonitrile] | 0%
13% | – | – | CC1=C(c2ccc(F)cc2)[C@@H](c2ccc(OC[C@H](C)N3CC[C@@H](C)C3)cc2)Oc2ccc(O)cc21 [(R)-3-(4-fluorophenyl)-4-methyl-2-(4-((S)-2-((R)-3-methylpyrrolidin-1-yl)propoxy)phenyl)-2H-chromen-6-ol, reference compound] | –
15% | 1900 pM | – | CC1=C(c2ccc(Cl)cc2)C(c2ccc(OC[C@H](C)N3CC[C@@H](C)C3)cc2)Oc2ccc(O)cc21 (stereo partly drawn) [3-(4-chlorophenyl)-4-methyl-2-(4-((S)-2-((R)-3-methylpyrrolidin-1-yl)propoxy)phenyl)-2H-chromen-6-ol, reference compound] | 14%

SMILES | ER-α In-Cell Western Assay (SP1): % ER-α remaining relative to Fulvestrant [1] | IC50 [2, 3] | IC50 ([2]; read-out: MCF7 Viability Assay IC50, 5 days' compound exposure, cell printed without unit) | MCF7 Viability Assay: % Viability relative to Fulvestrant [2]
CC1=C(c2ccc(C#N)cc2)C(c2ccc(OC[C@H](C)N3CC[C@@H](C)C3)cc2)Oc2ccc(O)cc21 (stereo partly drawn) [4-(6-hydroxy-4-methyl-2-(4-((S)-2-((R)-3-methylpyrrolidin-1-yl)propoxy)phenyl)-2H-chromen-3-yl)benzonitrile, reference compound] | – | 10000 pM | – | 15%
